Assay in all cases: biochemical
Common to all, as to type: binding

Assay [1] addresses T1, panel of 442 kinases (Homo sapiens, UniProt Q9BYT3).
T1 construct: purchased Ambit Biosciences (scanMAXX KINOMEscan)
The conditions noted are these: kinase STK33; for remaining activity at 1 µM: read-out: STK33 (% of control at 1 µM).

Assay [2] addresses T2, panel of 442 kinases (Homo sapiens, UniProt Q9UIK4).
T2 construct: purchased Ambit Biosciences (scanMAXX KINOMEscan)
The conditions noted are these: DAPK2; for remaining activity at 1 µM: read-out: % of control at 1 µM.

Assay [3] has as its target T3, panel of 442 kinases (Mycobacterium tuberculosis, UniProt P9WI81).
T3 construct: purchased Ambit Biosciences (scanMAXX KINOMEscan)
The following applies: for remaining activity at 1 µM: read-out: PKNB(M.tuberculosis) (% of control at 1 µM); for remaining activity at 10 µM: read-out: PKNB(M.tuberculosis) (% of control at 10 µM).

In assay [4] the target is T4, panel of 442 kinases (Homo sapiens, UniProt Q8IVH8).
T4 construct: purchased Ambit Biosciences (scanMAXX KINOMEscan)
T4 sequence (Q8IVH8 1-894): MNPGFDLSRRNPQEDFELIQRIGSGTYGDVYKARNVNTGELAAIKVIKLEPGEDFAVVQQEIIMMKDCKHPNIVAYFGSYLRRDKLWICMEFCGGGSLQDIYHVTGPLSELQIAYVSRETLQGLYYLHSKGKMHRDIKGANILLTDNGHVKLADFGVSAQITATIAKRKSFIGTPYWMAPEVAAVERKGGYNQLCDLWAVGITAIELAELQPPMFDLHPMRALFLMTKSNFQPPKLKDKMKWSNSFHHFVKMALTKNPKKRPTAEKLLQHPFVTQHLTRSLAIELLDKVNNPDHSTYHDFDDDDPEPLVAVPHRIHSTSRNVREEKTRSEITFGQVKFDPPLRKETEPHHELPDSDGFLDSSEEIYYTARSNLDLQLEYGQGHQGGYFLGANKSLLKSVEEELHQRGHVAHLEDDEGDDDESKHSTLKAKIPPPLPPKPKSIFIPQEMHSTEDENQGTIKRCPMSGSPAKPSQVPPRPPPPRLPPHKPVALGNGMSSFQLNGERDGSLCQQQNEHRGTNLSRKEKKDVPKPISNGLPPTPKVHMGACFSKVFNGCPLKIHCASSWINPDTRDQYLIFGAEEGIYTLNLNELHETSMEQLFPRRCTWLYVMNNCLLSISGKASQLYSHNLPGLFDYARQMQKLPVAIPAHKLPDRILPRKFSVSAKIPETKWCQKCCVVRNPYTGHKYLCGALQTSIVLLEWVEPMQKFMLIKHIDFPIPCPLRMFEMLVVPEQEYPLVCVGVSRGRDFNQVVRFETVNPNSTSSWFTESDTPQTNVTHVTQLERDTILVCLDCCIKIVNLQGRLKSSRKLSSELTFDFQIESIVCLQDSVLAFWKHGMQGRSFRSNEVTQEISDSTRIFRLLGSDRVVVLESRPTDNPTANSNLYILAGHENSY
The conditions noted are these: kinase MAP4K3; for remaining activity at 1 µM: read-out: % of control at 1 µM.

Assay [5] deals with T5, panel of 442 kinases (Homo sapiens, UniProt Q13546).
T5 construct: purchased Ambit Biosciences (scanMAXX KINOMEscan)
T5 sequence (Q13546 1-671): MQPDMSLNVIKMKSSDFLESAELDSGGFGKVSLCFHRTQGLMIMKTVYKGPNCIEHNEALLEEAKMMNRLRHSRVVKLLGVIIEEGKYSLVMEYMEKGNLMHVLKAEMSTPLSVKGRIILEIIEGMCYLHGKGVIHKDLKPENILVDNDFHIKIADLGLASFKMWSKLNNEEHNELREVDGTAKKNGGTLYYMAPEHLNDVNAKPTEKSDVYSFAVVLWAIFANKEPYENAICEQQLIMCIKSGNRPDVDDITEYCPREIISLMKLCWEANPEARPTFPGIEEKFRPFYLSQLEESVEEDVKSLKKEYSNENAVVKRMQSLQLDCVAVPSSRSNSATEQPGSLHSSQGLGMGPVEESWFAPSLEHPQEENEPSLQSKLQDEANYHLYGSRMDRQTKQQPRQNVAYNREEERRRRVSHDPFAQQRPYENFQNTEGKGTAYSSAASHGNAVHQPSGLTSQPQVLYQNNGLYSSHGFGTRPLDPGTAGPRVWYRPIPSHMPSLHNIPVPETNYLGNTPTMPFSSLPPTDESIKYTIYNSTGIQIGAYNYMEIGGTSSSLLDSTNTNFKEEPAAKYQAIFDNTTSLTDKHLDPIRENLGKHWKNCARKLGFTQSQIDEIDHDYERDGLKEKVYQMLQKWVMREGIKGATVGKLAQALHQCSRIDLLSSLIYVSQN
The following applies: kinase RIPK1; for remaining activity at 1 µM: read-out: RIPK1 (% of control at 1 µM).

Assay [6] addresses T6, panel of 442 kinases (Homo sapiens, UniProt P68400).
T6 construct: purchased Ambit Biosciences (scanMAXX KINOMEscan)
The conditions noted are these: CSNK2A1; for remaining activity at 1 µM: read-out: % of control at 1 µM.

Assay [7] addresses T7, panel of 442 kinases (Homo sapiens, UniProt Q8TBX8).
T7 construct: purchased Ambit Biosciences (scanMAXX KINOMEscan)
T7 sequence (Q8TBX8 1-421): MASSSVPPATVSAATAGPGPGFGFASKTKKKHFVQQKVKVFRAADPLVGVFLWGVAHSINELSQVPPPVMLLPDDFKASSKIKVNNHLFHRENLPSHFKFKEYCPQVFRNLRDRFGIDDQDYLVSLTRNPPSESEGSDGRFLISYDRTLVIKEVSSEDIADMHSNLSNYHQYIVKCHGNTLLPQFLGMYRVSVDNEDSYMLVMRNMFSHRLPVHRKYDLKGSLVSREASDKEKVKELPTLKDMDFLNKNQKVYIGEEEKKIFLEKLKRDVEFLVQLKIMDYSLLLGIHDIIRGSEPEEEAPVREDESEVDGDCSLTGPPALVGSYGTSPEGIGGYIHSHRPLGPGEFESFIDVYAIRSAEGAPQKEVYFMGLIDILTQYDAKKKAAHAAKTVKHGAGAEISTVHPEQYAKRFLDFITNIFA
The following applies: kinase PIP5K2C; for remaining activity at 1 µM: read-out: % of control at 1 µM.

Assay [8] addresses T8, panel of 442 kinases (Homo sapiens, UniProt P51451).
T8 construct: purchased Ambit Biosciences (scanMAXX KINOMEscan)
The following applies: BLK; for remaining activity at 1 µM: read-out: % of control at 1 µM.

For assay [9], the target named is T9, panel of 442 kinases (Homo sapiens, UniProt P49674).
T9 construct: purchased Ambit Biosciences (scanMAXX KINOMEscan)
The following applies: CSNK1E; for remaining activity at 1 µM: read-out: % of control at 1 µM.

Assay [10] concerns the target T10, panel of 442 kinases (Homo sapiens, UniProt P17948).
T10 construct: purchased Ambit Biosciences (scanMAXX KINOMEscan)
The following applies: FLT1; for remaining activity at 1 µM: read-out: % of control at 1 µM.

[11] abbreviates: 10 µM, read-out: % of control at 10 µM.

The values below come from publication PMC5564600 (Oncotarget, 2017).

Each structure is given as a SMILES string.

T8 sequence (P51451 whole entry): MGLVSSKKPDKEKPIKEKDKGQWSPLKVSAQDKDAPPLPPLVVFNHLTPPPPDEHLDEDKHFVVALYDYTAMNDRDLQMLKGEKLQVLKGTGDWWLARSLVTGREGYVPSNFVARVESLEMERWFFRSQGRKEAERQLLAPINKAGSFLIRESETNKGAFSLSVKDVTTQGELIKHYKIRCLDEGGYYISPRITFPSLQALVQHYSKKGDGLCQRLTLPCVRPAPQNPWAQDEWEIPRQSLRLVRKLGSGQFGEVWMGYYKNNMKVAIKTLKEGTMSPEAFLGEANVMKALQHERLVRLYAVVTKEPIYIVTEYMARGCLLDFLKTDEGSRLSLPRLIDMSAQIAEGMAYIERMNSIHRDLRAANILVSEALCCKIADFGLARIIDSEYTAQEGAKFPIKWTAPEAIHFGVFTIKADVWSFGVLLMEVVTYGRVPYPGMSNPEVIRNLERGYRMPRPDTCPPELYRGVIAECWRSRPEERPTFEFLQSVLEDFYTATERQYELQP
T9 sequence (P49674 whole entry): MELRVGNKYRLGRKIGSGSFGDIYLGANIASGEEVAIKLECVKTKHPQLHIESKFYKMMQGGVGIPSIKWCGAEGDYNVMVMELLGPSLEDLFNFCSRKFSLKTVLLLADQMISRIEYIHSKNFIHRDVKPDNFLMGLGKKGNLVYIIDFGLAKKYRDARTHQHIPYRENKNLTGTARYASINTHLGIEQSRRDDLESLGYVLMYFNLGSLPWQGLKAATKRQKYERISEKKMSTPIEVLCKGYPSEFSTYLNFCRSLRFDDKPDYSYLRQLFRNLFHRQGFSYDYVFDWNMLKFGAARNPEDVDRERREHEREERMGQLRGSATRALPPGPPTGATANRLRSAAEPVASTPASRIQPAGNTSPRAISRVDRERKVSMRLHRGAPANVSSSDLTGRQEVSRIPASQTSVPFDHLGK
T6 sequence (P68400 whole entry): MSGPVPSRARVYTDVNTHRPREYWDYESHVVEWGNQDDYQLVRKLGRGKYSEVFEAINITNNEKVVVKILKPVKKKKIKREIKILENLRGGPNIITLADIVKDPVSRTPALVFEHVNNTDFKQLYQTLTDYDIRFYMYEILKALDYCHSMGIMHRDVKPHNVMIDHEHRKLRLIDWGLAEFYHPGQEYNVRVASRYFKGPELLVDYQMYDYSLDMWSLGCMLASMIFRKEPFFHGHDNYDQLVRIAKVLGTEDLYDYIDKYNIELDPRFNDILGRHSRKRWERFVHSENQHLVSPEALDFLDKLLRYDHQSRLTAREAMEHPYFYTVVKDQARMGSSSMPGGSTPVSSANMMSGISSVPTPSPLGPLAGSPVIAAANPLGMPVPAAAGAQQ
T3 sequence (P9WI81 whole entry): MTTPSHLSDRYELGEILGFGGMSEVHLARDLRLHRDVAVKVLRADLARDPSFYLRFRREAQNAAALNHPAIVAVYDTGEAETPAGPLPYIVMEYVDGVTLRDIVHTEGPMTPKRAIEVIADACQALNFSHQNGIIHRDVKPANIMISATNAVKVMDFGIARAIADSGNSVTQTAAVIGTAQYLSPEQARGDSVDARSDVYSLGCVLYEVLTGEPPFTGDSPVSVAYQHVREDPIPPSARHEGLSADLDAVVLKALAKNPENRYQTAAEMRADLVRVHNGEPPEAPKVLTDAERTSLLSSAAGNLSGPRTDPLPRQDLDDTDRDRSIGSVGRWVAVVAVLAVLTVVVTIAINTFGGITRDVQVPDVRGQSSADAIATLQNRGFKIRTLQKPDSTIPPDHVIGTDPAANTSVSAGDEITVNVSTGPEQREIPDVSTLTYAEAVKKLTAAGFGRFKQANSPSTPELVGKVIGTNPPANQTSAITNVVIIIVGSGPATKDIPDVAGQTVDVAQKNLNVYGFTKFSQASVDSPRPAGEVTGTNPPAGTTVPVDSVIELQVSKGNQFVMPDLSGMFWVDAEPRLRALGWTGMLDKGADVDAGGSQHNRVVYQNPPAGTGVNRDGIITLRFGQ
T2 sequence (Q9UIK4 whole entry): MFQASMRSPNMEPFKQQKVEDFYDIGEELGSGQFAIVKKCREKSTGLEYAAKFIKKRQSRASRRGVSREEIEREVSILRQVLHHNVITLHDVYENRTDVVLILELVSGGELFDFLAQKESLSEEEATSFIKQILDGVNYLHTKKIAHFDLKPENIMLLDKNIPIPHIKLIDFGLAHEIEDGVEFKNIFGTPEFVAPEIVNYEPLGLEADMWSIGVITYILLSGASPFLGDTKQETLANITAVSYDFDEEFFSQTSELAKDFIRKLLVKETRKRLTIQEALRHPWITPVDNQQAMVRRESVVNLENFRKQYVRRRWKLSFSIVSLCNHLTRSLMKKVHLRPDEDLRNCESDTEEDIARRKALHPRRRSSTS
T10 sequence (P17948 27-1338): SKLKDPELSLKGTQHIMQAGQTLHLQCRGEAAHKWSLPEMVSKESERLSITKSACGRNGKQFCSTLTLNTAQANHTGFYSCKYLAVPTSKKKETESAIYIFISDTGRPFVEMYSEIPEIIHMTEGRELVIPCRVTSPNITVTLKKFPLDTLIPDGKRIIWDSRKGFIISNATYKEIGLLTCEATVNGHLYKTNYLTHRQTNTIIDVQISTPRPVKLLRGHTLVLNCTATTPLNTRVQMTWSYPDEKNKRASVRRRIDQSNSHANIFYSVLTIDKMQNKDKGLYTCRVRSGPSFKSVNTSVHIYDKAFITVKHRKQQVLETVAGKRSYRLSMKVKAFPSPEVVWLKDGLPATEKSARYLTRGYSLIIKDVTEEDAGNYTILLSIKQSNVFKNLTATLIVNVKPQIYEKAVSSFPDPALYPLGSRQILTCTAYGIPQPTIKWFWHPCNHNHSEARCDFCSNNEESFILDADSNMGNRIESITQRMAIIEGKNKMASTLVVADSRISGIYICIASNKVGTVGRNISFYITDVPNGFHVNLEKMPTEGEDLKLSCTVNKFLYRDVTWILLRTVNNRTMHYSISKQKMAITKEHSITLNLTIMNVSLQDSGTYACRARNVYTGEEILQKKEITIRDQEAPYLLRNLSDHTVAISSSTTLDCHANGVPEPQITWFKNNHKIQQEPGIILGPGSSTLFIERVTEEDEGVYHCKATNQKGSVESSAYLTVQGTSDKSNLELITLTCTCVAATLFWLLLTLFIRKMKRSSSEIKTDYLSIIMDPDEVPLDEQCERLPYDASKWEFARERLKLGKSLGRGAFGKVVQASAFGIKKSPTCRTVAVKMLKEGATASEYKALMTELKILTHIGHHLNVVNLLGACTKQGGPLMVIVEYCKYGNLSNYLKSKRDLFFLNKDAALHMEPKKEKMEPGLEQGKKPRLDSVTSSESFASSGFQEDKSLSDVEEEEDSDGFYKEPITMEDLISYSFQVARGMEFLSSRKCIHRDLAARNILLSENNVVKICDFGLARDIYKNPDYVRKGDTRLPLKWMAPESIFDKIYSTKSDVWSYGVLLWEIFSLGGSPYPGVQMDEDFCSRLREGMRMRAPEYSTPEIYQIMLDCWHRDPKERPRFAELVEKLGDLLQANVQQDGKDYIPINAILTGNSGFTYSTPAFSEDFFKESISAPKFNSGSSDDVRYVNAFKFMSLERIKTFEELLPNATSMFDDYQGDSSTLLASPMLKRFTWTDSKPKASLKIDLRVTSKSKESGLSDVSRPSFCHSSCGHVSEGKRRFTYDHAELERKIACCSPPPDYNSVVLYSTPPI
T1 sequence (Q9BYT3 whole entry): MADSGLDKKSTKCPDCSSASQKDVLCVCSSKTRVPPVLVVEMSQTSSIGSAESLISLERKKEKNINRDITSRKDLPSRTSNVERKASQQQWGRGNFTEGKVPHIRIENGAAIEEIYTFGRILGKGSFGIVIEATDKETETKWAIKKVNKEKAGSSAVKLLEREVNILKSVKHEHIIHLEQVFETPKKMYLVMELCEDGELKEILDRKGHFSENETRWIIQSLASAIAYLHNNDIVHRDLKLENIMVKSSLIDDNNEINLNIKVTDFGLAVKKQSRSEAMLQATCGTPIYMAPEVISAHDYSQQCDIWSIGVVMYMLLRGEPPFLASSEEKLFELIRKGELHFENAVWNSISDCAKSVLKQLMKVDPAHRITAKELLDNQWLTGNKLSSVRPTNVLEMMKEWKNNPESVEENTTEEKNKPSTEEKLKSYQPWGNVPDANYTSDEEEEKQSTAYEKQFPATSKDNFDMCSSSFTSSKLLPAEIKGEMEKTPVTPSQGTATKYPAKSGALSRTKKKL

Turning to `Nc1cc(C(F)(F)F)c(-c2cc(N3CCOCC3)nc(N3CCOCC3)n2)cn1` [Buparlisib], the remaining activity at 1 µM turned out to be 90% in assay [1]; 100% in assay [2]; 100% in [3]; 93% in assay [4]; 100% in assay [5]; 91% in assay [6]. Also, the remaining activity at 1 µM worked out at 71% in assay [7], 93% in assay [8], 100% in [9] and 100% in assay [10]. In addition, the remaining activity at 10 µM in [1] (10 µM, read-out: STK33 (% of control at 10 µM)) worked out at 97%; in [2] (setting [11]) it was 100%; in assay [3], 73%; in [4] (setting [11]), 81%; in [5] (10 µM, read-out: RIPK1 (% of control at 10 µM)), 100%; in assay [6] (setting [11]), 100%. Further, the remaining activity at 10 µM in assay [7] (setting [11]) turned out to be 46%; in assay [8] (setting [11]), 100%; in assay [9] (setting [11]), 72%; in assay [10] (setting [11]) it was 100%.
With `Cn1c(=O)n(-c2ccc(C(C)(C)C#N)cc2)c2c3cc(-c4cnc5ccccc5c4)ccc3ncc21` [Dactolisib, 2-methyl-2-[4-(3-methyl-2-oxo-8-quinolin-3-yl-2,3-dihydroimidazo[4,5-c]quinolin-1-yl)-phenyl] propionitrile], the remaining activity at 1 µM in assay [1] worked out at 100%; in assay [2] it was 97%; in [3], 100%; in [4], 30%; in assay [5], 91%; in assay [6], 64%. The remaining activity at 1 µM in assay [7] came to 89%; in assay [8], 97%; in assay [9], 54%; in [10] it was 86%.
With `COc1ncc(-c2ccc3nccc(-c4ccnnc4)c3c2)cc1NS(=O)(=O)c1ccc(F)cc1F` [Omipalisib], the remaining activity at 1 µM in [1] came to 100%; in assay [2], 100%; in [3], 67%; in assay [4] it was 85%; in assay [5] it was 78%; in assay [6], 100%. Also, the remaining activity at 1 µM in assay [7] came out at 56%; in assay [8], 94%; in assay [9], 100%; in [10] it was 100%.
For `CS(=O)(=O)N1CCN(Cc2cc3nc(-c4cccc5[nH]ncc45)nc(N4CCOCC4)c3s2)CC1` [Pictilisib, 2-(1H-indazol-4-yl)-6-(4-methanesulfonyl-piperazin-1-ylmethyl)-4-morpholin-4-yl-t hieno[3,2-d]pyrimidine], in assay [3], the remaining activity at 1 µM stood at 85% and the remaining activity at 10 µM was found to be 55%.
With `FC(F)c1nc2ccccc2n1-c1nc(N2CCOCC2)nc(N2CCOCC2)n1` [ZSTK474, 2-(difluoromethyl)-1-[4,6-di(4-morpholinyl)-1,3,5-triazin-2-yl]-1H-benzimidazole], the remaining activity at 1 µM in assay [1] is 100%; in assay [2], 100%; in assay [3] it was 86%; in assay [4] it was 87%; in assay [5], 98%; in assay [6], 90%. Besides, the remaining activity at 1 µM in [7], in assay [8], in assay [9] and in assay [10] was 100% in each case.
